Values joined by “and” are separate entries in the source; they are usually repeats but may differ in a detail not shown here. Equal values may be shown once.

For 8 compounds, IC50 results are on record in patent US8420646B2, “Tricyclic tetrahydroquinoline antibacterial agents” (PAH P&U LLC, priority 2002, dated 2013).

The target in the assay is T1, E. coli DNA gyrase (Escherichia coli, UniProt P0AES4+P0AES6).
T1 construct: made in house; host or cells: strains overexpressing each subunit individually
T1 sequence (P0AES4 whole entry, one chain of several): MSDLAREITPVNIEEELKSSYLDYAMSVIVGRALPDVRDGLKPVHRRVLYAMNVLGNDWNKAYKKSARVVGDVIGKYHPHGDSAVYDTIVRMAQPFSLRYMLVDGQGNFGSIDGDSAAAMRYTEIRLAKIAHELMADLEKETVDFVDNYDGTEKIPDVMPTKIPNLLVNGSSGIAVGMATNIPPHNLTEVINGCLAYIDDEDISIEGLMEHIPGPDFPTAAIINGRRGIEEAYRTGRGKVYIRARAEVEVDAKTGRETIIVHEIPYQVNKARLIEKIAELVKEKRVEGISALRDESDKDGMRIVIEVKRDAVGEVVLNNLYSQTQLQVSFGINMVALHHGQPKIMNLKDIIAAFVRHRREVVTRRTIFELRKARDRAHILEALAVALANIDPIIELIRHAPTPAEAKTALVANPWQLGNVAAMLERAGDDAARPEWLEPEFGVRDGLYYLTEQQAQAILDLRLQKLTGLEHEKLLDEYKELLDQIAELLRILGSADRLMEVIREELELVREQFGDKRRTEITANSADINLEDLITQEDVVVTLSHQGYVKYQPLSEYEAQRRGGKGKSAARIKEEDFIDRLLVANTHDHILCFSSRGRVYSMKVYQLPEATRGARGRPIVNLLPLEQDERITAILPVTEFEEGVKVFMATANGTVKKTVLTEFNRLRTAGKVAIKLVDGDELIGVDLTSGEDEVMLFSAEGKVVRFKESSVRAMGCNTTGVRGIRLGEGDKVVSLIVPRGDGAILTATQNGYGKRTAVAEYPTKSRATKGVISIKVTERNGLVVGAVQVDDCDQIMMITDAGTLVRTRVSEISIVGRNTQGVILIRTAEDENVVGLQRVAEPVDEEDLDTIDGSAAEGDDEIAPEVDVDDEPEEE
Nature of the assay: In Vitro DNA Gyrase Assay (supercoiling of relaxed pBR322, EtBr-stained agarose gel). The format is biochemical. The note with it: Gyrase IC50 (μM), E. coli DNA gyrase holoenzyme A2B2; substrate relaxed pBR322; relaxed vs. supercoiled DNA on 0.8% agarose gel. The text has this: DNA gyrase is a bacterial topoisomerase that introduces negative supercoils into DNA. The DNA gyrase assay measures the degree of enzymatic activity by quantitating relative amounts of relaxed vs. supercoiled DNA on an EtBr-stained 0.8% agarose gel. The substrate is relaxed pBR322. The enzyme is E. coli DNA gyrase which is purified from strains overexpressing each of the subunits individually (there are two: A and B and the holoenzyme consists of the heterodimer A2B2). See for example, Hallett et al. Cloning of the DNA gyrase genes under tac promoter control: overproduction of the gyrase A and B proteins. Gene 93: 139-142 (1990); Simon et al. Biochemical complementation studies in vitro of gyrase subunits from different species. FEBS Lett 373:88-92 (1995); and O'Dea et al. Mutations in the B subunit of Escherichia coli DNA gyrase that affect ATP-dependent reactions. J. Biol Chem 1996 271:9723-9 (1996).
In the below chart, racemic mixtures are denoted with (±)- and enantiomerically enriched samples are denoted by (−)- or (+)-.
For the compound `C[C@@H]1CN2c3ccc(C#N)cc3CC3(C(=O)NC(=O)NC3=O)[C@H]2[C@H](C)O1` [Example 6, 1,1′,2,3′4,4′,4a, 6′-Octrahydro-2,4′,6′-trioxospiro[[1,4]oxazino[4,3-a]quinoline-5(6H), 5′(2′H)-pyrimidine]-8-carbonitrile], the IC50 was 13.8 µM.
`CC(=O)c1ccc2c(c1)CC1(C(=O)NC(=O)NC1=O)[C@H]1[C@H](C)O[C@H](C)CN21` (racemic) [Example 18, 8-Acetyl-1,2,4,4a-tetrahydro-2,4-dimethylspiro[[1,4]oxazino[4,3-a]quinoline-5(6H),5′(2H)-pyrimidine)-2′,4′,6′(1′H,3′H)-trione] yielded an IC50 of 8.4 µM.
`C[C@@H]1CN2c3ccccc3CC3(C(=O)NC(=O)NC3=O)[C@H]2[C@H](C)O1` (racemic) [Example 2, 1,2,4,4a-Tetrahydro-cis-2,4-dimethylspiro[[1,4]oxazino[4,3-a]quinoline-5(6H), 5′(2′H)-pyrimidine]-2′,4′,6′(1′H,3′H)-trione] returned an IC50 of 45.6 µM.
The figure for `C[C@@H]1CN2c3ccc([N+](=O)[O-])cc3CC3(C(=O)NC(=O)NC3=O)[C@@H]2[C@@H](C)O1` (racemic) [Example 1] is 19 µM.
Turning to `C[C@@H]1CN2c3ccc([N+](=O)[O-])cc3CC3(C(=O)NC(=O)NC3=O)[C@H]2[C@H](C)O1` (stereo in doubt) [Example 1], the IC50 is 11.8 µM and 6.1 µM.
Regarding `C[C@@H]1OCCN2c3ccc([N+](=O)[O-])cc3CC3(C(=O)NC(=O)NC3=O)[C@@H]12` (stereo in doubt) [Example 25], the IC50 is 18.2 µM and 32 µM.
Consider `COC(=O)c1ccc2c(c1)CC1(C(=O)NC(=O)NC1=O)[C@H]1[C@H](C)O[C@H](C)CN21` (relative stereo) [Example 43, rel-Methyl (2R,4S,4aS)1,1′-2,3′,4,4a,6′-Octahydro-2,4-dimethyl-2′,4′,6′-trioxospiro[[1,4]oxazino[4,3-a]quinoline-5(6H),5′(2′H)-pyrimidine]-8-carboxylate], for which the midpoint of inhibition, the IC50, lay at 24 µM.
In turn, `C[C@@H]1CN2c3ccc(F)cc3CC3(C(=O)NC(=O)NC3=O)[C@H]2[C@H](C)O1` (racemic) [Example 4, 8-Fluoro-1,2,4,4a-tetrahydro-cis-2,4-dimethylspiro[[1,4]oxazino[4,3-a]quinoline-5(6H), 5′(2′H)-pyrimidine]-2′,4′,6′(1′H,3′H)-trione] registered an IC50 of 70.2 µM.
